This is an account of results in ChEMBL document CHEMBL5537209, “Teleocidin B-4, a PKC Activator, Upregulates Hypoxia-Inducible Factor 1 (HIF-1) Activity by Promoting the Accumulation of HIF-1α Protein via the PKCα/mTORC Signaling Pathway” (J Nat Prod, 2024).

Format in all cases: cell-based
The test system of experiment [1] is HeLa S3. Kind of experiment: Activation of HIF-1 in human HeLa S3 cells assessed as increase in HIF-1alpha protein level at 10 ng/ml pretreated with Go6983 for 1 hr followed by 12 hrs incubation under hypoxic condition by Western blotting analysis. In general terms: A western blot detects proteins with antibodies after separation by electrophoresis.
In experiment [2] the test system is HeLa S3. Briefly: Activation of HIF-1 in human HeLa S3 cells assessed as increase in VEGF mRNA level at 10 ng/ml pretreated with Go6983 for 1 hr followed by 6 hrs incubation under hypoxic condition by real-time quantitative PCR analysis.
The subject of experiment [3] is HeLa. Briefly: Activation of HIF-1 transcriptional activity in human HeLa cells transfected with 5xHRE-Luc/UCHL1 reporter at 0.1 to 100 ng/ml pretreated with Go6983 for 1 hr followed by 24 hrs incubation under hypoxic condition by luciferase reporter assay. Conditions: dose 0.1-100 ng/ml. For orientation: A reporter such as luciferase makes a cellular process visible.

For experiment [4], the system named is HeLa. Briefly: Activation of HIF-1 transcriptional activity in human HeLa cells transfected with 5xHRE-Luc/UCHL1 reporter at 0.1 to 1000 ng/ml preincubated for 1 hr under normoxic condition followed by 24 hrs incubation under hypoxic condition by luciferase reporter assay. The settings on record: filed as activator, dose 0.1-1000 ng/ml, time 25.0 hrs.
Experiment [5] relates to HeLa S3. Kind of experiment: Activation of HIF-1 in human HeLa S3 cells assessed as increase in VEGF mRNA level at 0.1 to 10 ng/ml preincubated for 1 hr under normoxic condition followed by 6 hrs incubation under hypoxic condition by real-time quantitative PCR analysis. Conditions: filed as activator, dose 0.1-10 ng/ml, time 7.0 hrs.
The subject of experiment [6] is HeLa S3. Briefly: Activation of HIF-1 in human HeLa S3 cells assessed as increase in HIF-1alpha protein level at 0.1 to 10 ng/ml preincubated for 1 hr under normoxic condition followed by 12 hrs incubation under hypoxic condition by Western blotting analysis. The settings on record: filed as activator, dose 0.1-10 ng/ml, time 13.0 hrs.
Experiment [7] concerns HeLa S3. Briefly: Activation of HIF-1 in human HeLa S3 cells assessed as increase in HIF-1alpha protein level at 10 ng/ml pretreated with MG132 for 1 hr followed by 12 hrs incubation under normoxic condition by Western blotting analysis. Conditions: filed as activator.
Experiment [8] relates to HeLa. Briefly: Activation of HIF-1 transcriptional activity in human HeLa cells transfected with 5xHRE-Luc/UCHL1 reporter at 10 ng/ml pretreated with Go6976 for 1 hr followed by 24 hrs incubation under hypoxic condition by luciferase reporter assay.
Experiment [9] concerns HeLa. Briefly: Activation of HIF-1 transcriptional activity in human HeLa cells transfected with 5xHRE-Luc/UCHL1 reporter and PKCalpha siRNA at 10 ng/ml incubated for 24 hrs under hypoxia condition by luciferase reporter assay.
In experiment [10] the test system is HeLa. Briefly: Activation of HIF-1 transcriptional activity in human HeLa cells transfected with 5xHRE-Luc/UCHL1 reporter and PKCdelta siRNA at 10 ng/ml incubated for 24 hrs under hypoxia condition by luciferase reporter assay. The settings on record: filed as activator.
For experiment [11], the system named is HeLa S3. Briefly: Activation of HIF-1 transcriptional activity in human HeLa S3 cells transfected with 5xHRE-Luc/UCHL1 reporter and PKCalpha siRNA assessed as upregulation of HIF-1alpha protein level at 10 ng/ml incubated for 12 hrs under hypoxia condition by Western blotting assay.
The subject of experiment [12] is HeLa S3. Kind of experiment: Activation of PKCalpha/mTORC pathway in human HeLa S3 cells assessed as accumulation of phosphorylated ribosomal protein S6 at 10 ng/ml incubated for 12 hrs under hypoxia condition by Western blotting analysis. Conditions: filed as activator.
For experiment [13], the system named is HeLa S3. Briefly: Activation of PKCalpha/mTORC pathway in human HeLa S3 cells transfected with PKCalpha siRNA assessed as accumulation of phosphorylated ribosomal protein S6 at 10 ng/ml incubated for 12 hrs under hypoxia condition by Western blotting analysis.
Experiment [14] deals with HeLa S3. Kind of experiment: Activation of PKCdelta/mTORC pathway in human HeLa S3 cells transfected with PKCdelta siRNA assessed as accumulation of phosphorylated ribosomal protein S6 at 10 ng/ml incubated for 12 hrs under hypoxia condition by Western blotting analysis. The settings on record: filed as activator.
The test system of experiment [15] is HeLa. Briefly: Activation of HIF-1 transcriptional activity in human HeLa cells transfected with 5xHRE-Luc/UCHL1 reporter at 10 ng/ml pretreated with torin1 for 1 hr followed by 24 hrs incubation under hypoxia condition by luciferase reporter assay.
Experiment [16] concerns HeLa. Briefly: Activation of HIF-1 transcriptional activity in human HeLa cells transfected with 5xHRE-Luc/UCHL1 reporter at 0.1 to 10 uM preincubated for 1 hr under normoxic condition followed by 24 hrs incubation under hypoxic condition by luciferase reporter assay. Conditions: filed as activator, dose 0.1-10 µM, time 25.0 hrs.
Experiment [17] deals with HeLa S3. Kind of experiment: Activation of HIF-1 in human HeLa S3 cells assessed as increase in VEGF mRNA level at 10 ng/ml preincubated for 1 hr under normoxic condition followed by 6 hrs incubation under hypoxic condition by real-time quantitative PCR analysis. Conditions: filed as activator, time 7.0 hrs.
The subject of experiment [18] is HeLa S3. Kind of experiment: Activation of HIF-1 in human HeLa S3 cells assessed as increase in HIF-1alpha protein level at 10 ng/ml preincubated for 1 hr under normoxic condition followed by 12 hrs incubation under hypoxic condition by Western blotting analysis. The settings on record: filed as activator, time 13.0 hrs.

Each structure is given as a SMILES string. Calls of active or inactive are those of the source. No cut-off for these calls is given here.

In the case of `C=C[C@@]1(C)CC[C@](C)(C(C)C)c2cc3c4c(c[nH]c4c21)C[C@@H](CO)NC(=O)[C@H](C(C)C)N3C`, the outcome with HeLa S3 [1], in the experiment with HeLa S3 [2], in the experiment with HeLa [3], with HeLa [8], in the experiment with HeLa [9] and in the experiment on HeLa S3 [11] was inactive. The outcome in the experiment on HeLa S3 [13] and with HeLa [15] was inactive. For the same compound, the outcome in the experiment with HeLa [4], in the experiment with HeLa S3 [5], in the experiment with HeLa S3 [6], in the experiment on HeLa S3 [7], in the experiment with HeLa [10] and with HeLa S3 [12] was Active. Moreover, the result in the experiment on HeLa S3 [14] was Active.

For the compound `C[C@H]1[C@@H]2C[C@@]3(O[C@H](CCC3(C)C)CC(=O)O[C@@H](CO)CC(=O)O2)O[C@@H]1CCCCc1cccc(O)c1`, in the experiment on HeLa [16], the outcome was Active.

For the compound `CCCCCCCCCCCCCC(=O)O[C@@H]1[C@@H](C)[C@@]2(O)[C@@H](C=C(CO)C[C@]3(O)C(=O)C(C)=C[C@@H]23)[C@@H]2C(C)(C)[C@]12OC(C)=O`, the result in the experiment on HeLa [4], in the experiment with HeLa S3 [17], with HeLa S3 [18], in the experiment with HeLa S3 [7], in the experiment with HeLa [10] and with HeLa S3 [12] was Active. The result with HeLa S3 [14] was Active. For the same compound, the result in the experiment with HeLa [8], in the experiment on HeLa [9], with HeLa S3 [11] and with HeLa S3 [13] was inactive.
